Test results published in the NIST ThermoML archive (doi:10.1021/je050006+).
Numbers after ± are expanded uncertainties.

Assays:
[1] = excess molar enthalpy (molar enthalpy of mixing); xn = mol fraction of the nth substance listed; settings: 101.3 kPa, Liquid
[2] = xn = mol fraction of the nth substance listed; settings: 101.3 kPa, Liquid

## C=C1CCC2CC1C2(C)C (stereo not drawn) [β-pinene] + CCO
[1]; 283.15 K, x1 = 0.071
  excess molar enthalpy: 0.0261 ± 0.000956 kcal/mol
[1]; 283.15 K, x1 = 0.142
  excess molar enthalpy: 0.0492 ± 0.00143 kcal/mol
[1]; 283.15 K, x1 = 0.269
  excess molar enthalpy: 0.0798 ± 0.00215 kcal/mol
[1]; 283.15 K, x1 = 0.394
  excess molar enthalpy: 0.0997 ± 0.00239 kcal/mol
[1]; 283.15 K, x1 = 0.496
  excess molar enthalpy: 0.109 ± 0.00263 kcal/mol
[1]; 283.15 K, x1 = 0.599
  excess molar enthalpy: 0.117 ± 0.00287 kcal/mol
[1]; 283.15 K, x1 = 0.689
  excess molar enthalpy: 0.117 ± 0.00287 kcal/mol
[1]; 283.15 K, x1 = 0.773
  excess molar enthalpy: 0.115 ± 0.00287 kcal/mol
[1]; 283.15 K, x1 = 0.864
  excess molar enthalpy: 0.105 ± 0.00263 kcal/mol
[1]; 283.15 K, x1 = 0.93
  excess molar enthalpy: 0.0844 ± 0.00215 kcal/mol
[1]; 283.15 K, x1 = 0.964
  excess molar enthalpy: 0.0664 ± 0.00191 kcal/mol
[1]; 298.15 K, x1 = 0.071
  excess molar enthalpy: 0.0349 ± 0.0012 kcal/mol
[1]; 298.15 K, x1 = 0.142
  excess molar enthalpy: 0.0645 ± 0.00167 kcal/mol
[1]; 298.15 K, x1 = 0.269
  excess molar enthalpy: 0.104 ± 0.00263 kcal/mol
[1]; 298.15 K, x1 = 0.394
  excess molar enthalpy: 0.129 ± 0.00311 kcal/mol
[1]; 298.15 K, x1 = 0.496
  excess molar enthalpy: 0.14 ± 0.00335 kcal/mol
[1]; 298.15 K, x1 = 0.599
  excess molar enthalpy: 0.145 ± 0.00335 kcal/mol
[1]; 298.15 K, x1 = 0.689
  excess molar enthalpy: 0.145 ± 0.00335 kcal/mol
[1]; 298.15 K, x1 = 0.773
  excess molar enthalpy: 0.139 ± 0.00335 kcal/mol
[1]; 298.15 K, x1 = 0.864
  excess molar enthalpy: 0.122 ± 0.00287 kcal/mol
[1]; 298.15 K, x1 = 0.93
  excess molar enthalpy: 0.0932 ± 0.00239 kcal/mol
[1]; 298.15 K, x1 = 0.964
  excess molar enthalpy: 0.0777 ± 0.00215 kcal/mol
[1]; 313.15 K, x1 = 0.071
  excess molar enthalpy: 0.0433 ± 0.00143 kcal/mol
[1]; 313.15 K, x1 = 0.142
  excess molar enthalpy: 0.0813 ± 0.00215 kcal/mol
[1]; 313.15 K, x1 = 0.269
  excess molar enthalpy: 0.135 ± 0.00311 kcal/mol
[1]; 313.15 K, x1 = 0.394
  excess molar enthalpy: 0.171 ± 0.00382 kcal/mol
[1]; 313.15 K, x1 = 0.496
  excess molar enthalpy: 0.19 ± 0.0043 kcal/mol
[1]; 313.15 K, x1 = 0.599
  excess molar enthalpy: 0.2 ± 0.00454 kcal/mol
[1]; 313.15 K, x1 = 0.689
  excess molar enthalpy: 0.199 ± 0.00454 kcal/mol
[1]; 313.15 K, x1 = 0.773
  excess molar enthalpy: 0.191 ± 0.0043 kcal/mol
[1]; 313.15 K, x1 = 0.864
  excess molar enthalpy: 0.167 ± 0.00382 kcal/mol
[1]; 313.15 K, x1 = 0.93
  excess molar enthalpy: 0.137 ± 0.00335 kcal/mol
[1]; 313.15 K, x1 = 0.964
  excess molar enthalpy: 0.0944 ± 0.00239 kcal/mol
[2]; 283.15 K, x1 = 0.0507
  mass density: 807.27 ± 1.7 kg/m3
  speed of sound: 1209.5 ± 3.6 m/s
[2]; 283.15 K, x1 = 0.1012
  mass density: 815.62 ± 1.5 kg/m3
  speed of sound: 1222.5 ± 3.5 m/s
[2]; 283.15 K, x1 = 0.2046
  mass density: 829.52 ± 1.3 kg/m3
  speed of sound: 1246.3 ± 3.3 m/s
[2]; 283.15 K, x1 = 0.3015
  mass density: 839.85 ± 1 kg/m3
  speed of sound: 1265.4 ± 3.2 m/s
[2]; 283.15 K, x1 = 0.4042
  mass density: 848.66 ± 0.88 kg/m3
  speed of sound: 1282.4 ± 3.1 m/s
[2]; 283.15 K, x1 = 0.5145
  mass density: 856.44 ± 0.78 kg/m3
  speed of sound: 1298.8 ± 3 m/s
[2]; 283.15 K, x1 = 0.6019
  mass density: 861.6 ± 0.7 kg/m3
  speed of sound: 1309.4 ± 3 m/s
[2]; 283.15 K, x1 = 0.6981
  mass density: 866.52 ± 0.66 kg/m3
  speed of sound: 1320.5 ± 3 m/s
[2]; 283.15 K, x1 = 0.7932
  mass density: 870.77 ± 0.65 kg/m3
  speed of sound: 1330.4 ± 3 m/s
[2]; 283.15 K, x1 = 0.8762
  mass density: 874.13 ± 0.64 kg/m3
  speed of sound: 1339.3 ± 3 m/s
[2]; 283.15 K, x1 = 0.9355
  mass density: 876.41 ± 0.65 kg/m3
  speed of sound: 1345.8 ± 3.2 m/s
[2]; 283.15 K, x1 = 0.9799
  mass density: 878.19 ± 0.67 kg/m3
  speed of sound: 1353.4 ± 3.4 m/s
[2]; 298.15 K, x1 = 0.0502
  mass density: 794.53 ± 1.7 kg/m3
  speed of sound: 1156.2 ± 3.4 m/s
[2]; 298.15 K, x1 = 0.1022
  mass density: 803.02 ± 1.5 kg/m3
  speed of sound: 1168.9 ± 3.3 m/s
[2]; 298.15 K, x1 = 0.1999
  mass density: 816.23 ± 1.3 kg/m3
  speed of sound: 1189.9 ± 3.2 m/s
[2]; 298.15 K, x1 = 0.3045
  mass density: 827.43 ± 1.1 kg/m3
  speed of sound: 1209 ± 3 m/s
[2]; 298.15 K, x1 = 0.4019
  mass density: 835.85 ± 0.9 kg/m3
  speed of sound: 1224.1 ± 2.9 m/s
[2]; 298.15 K, x1 = 0.5
  mass density: 842.91 ± 0.79 kg/m3
  speed of sound: 1237.4 ± 2.9 m/s
[2]; 298.15 K, x1 = 0.6017
  mass density: 849.06 ± 0.72 kg/m3
  speed of sound: 1249.8 ± 2.9 m/s
[2]; 298.15 K, x1 = 0.6999
  mass density: 854.18 ± 0.69 kg/m3
  speed of sound: 1260.6 ± 2.8 m/s
[2]; 298.15 K, x1 = 0.7626
  mass density: 857.17 ± 0.65 kg/m3
  speed of sound: 1264.9 ± 2.9 m/s
[2]; 298.15 K, x1 = 0.89
  mass density: 862.45 ± 0.66 kg/m3
  speed of sound: 1280.4 ± 3 m/s
[2]; 298.15 K, x1 = 0.9415
  mass density: 864.49 ± 0.67 kg/m3
  speed of sound: 1286.3 ± 3.2 m/s
[2]; 298.15 K, x1 = 0.98
  mass density: 866.07 ± 0.71 kg/m3
  speed of sound: 1294.5 ± 3.2 m/s
[2]; 313.15 K, x1 = 0.052
  mass density: 782.17 ± 1.7 kg/m3
  speed of sound: 1104.8 ± 3.3 m/s
[2]; 313.15 K, x1 = 0.1041
  mass density: 790.76 ± 1.5 kg/m3
  speed of sound: 1116.6 ± 3.1 m/s
[2]; 313.15 K, x1 = 0.2043
  mass density: 804.04 ± 1.3 kg/m3
  speed of sound: 1135.7 ± 3 m/s
[2]; 313.15 K, x1 = 0.3029
  mass density: 814.57 ± 1.1 kg/m3
  speed of sound: 1151.7 ± 2.9 m/s
[2]; 313.15 K, x1 = 0.4046
  mass density: 823.44 ± 0.92 kg/m3
  speed of sound: 1167 ± 2.8 m/s
[2]; 313.15 K, x1 = 0.4981
  mass density: 830.17 ± 0.8 kg/m3
  speed of sound: 1178.5 ± 2.8 m/s
[2]; 313.15 K, x1 = 0.6014
  mass density: 836.54 ± 0.74 kg/m3
  speed of sound: 1189.8 ± 2.7 m/s
[2]; 313.15 K, x1 = 0.6979
  mass density: 841.7 ± 0.69 kg/m3
  speed of sound: 1198.7 ± 2.7 m/s
[2]; 313.15 K, x1 = 0.809
  mass density: 846.76 ± 0.68 kg/m3
  speed of sound: 1207 ± 2.7 m/s
[2]; 313.15 K, x1 = 0.8844
  mass density: 850.12 ± 0.68 kg/m3
  speed of sound: 1213.6 ± 2.9 m/s
[2]; 313.15 K, x1 = 0.9356
  mass density: 852.26 ± 0.7 kg/m3
  speed of sound: 1221.9 ± 3.1 m/s
[2]; 313.15 K, x1 = 0.985
  mass density: 854.6 ± 0.73 kg/m3
  speed of sound: 1228.9 ± 3.1 m/s
